Consider 16 compounds from PubChem BioAssay (NCI).

Where “and” joins values, the source holds several entries; their conditions need not be identical. Equal values may be shown once.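 1) Cells in 96-well plates. 2) Compound, 48 h, 5 concentrations. 3) Linear interpolation between surrounding doses. 4) Unreached endpoint = highest concentration. GI50 = concentration required for 50% inhibition of growth. The concentration for full growth arrest is given as TGI.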

In one experiment the test system is OVCAR-5 ovarian. The experiment can be described thus: DTP human tumour cell line panel, 48 h.
What is called GI50 is the concentration that inhibits growth by half. A word on the TGI: it is the concentration giving total growth inhibition. Turning to `COC(=O)c1ccc2c(c1)C(=O)c1c-2n(CCCN=[N+]=[N-])c(=O)c2cc([N+](=O)[O-])ccc12`, the GI50 is > 100 µM and the total growth inhibition concentration (TGI) was > 100 µM.

`C=C1C(=O)C23C(O)C1CC[C@H]2C12CCCC(C)(COC(C)=O)[C@H]1[C@H](O)[C@]3(O)OC2` (stereo not given in full) returned a TGI of 5.18 µM.

With `O=C(c1cccs1)C1NO[N+]([O-])=C1c1cccs1` (stereo not given), the GI50 was 7.62 µM and the TGI is 20.4 µM.

For the compound `CN1c2ccccc2SC2C(c3ccccc3)=NOC21` (stereo not given), the TGI was > 100 µM.

On to `COc1ccc(C2=C(N3CCc4ccccc43)C(=O)NC2=O)cc1`, for which the GI50 is > 25 µM and the total growth inhibition concentration (TGI) is > 25 µM.

Regarding `Cc1cc2c(cc1Cl)S/C(=C/C(=O)O)C(Nc1cccc3nsnc13)=NS2(=O)=O`, the GI50 was 34.6 µM and the TGI is > 67.4 µM.

`COc1ccc(F)c(F)c1C(=O)c1cnc(NC2CCN(S(C)(=O)=O)CC2)nc1N`: the GI50 is 0.728 µM and 0.251 µM; the TGI was > 100 µM.

For the compound `Nc1cc(-c2ccc(Cl)cc2)nn1-c1nnc(/C=C/c2ccco2)c(=O)[nH]1`, the GI50 is 10.9 µM and the TGI was > 90.5 µM.

Turning to `Cc1c(C)c(CC(=O)N2CC2)c(C)c(C)c1CC(=O)N1CC1`, the TGI was > 83.8 µM.

With `O=C1c2ccccc2-c2c1c1c(NCCCO)nc3ccccc3c1n2Cc1ccccc1`, the GI50 is 18 µM and the TGI came to 39.9 µM.

Consider `O=C1c2ccccc2-c2c1c1ccccc1c(=O)n2CCNCCn1c2c(c3ccccc3c1=O)C(=O)c1ccccc1-2`, for which the GI50 was > 25 µM and the TGI is > 25 µM.

`CCCCCCCCCCCCCCCCCCOCC(COCCOCC[N+]1(CCCCCC(=O)[O-])CCCC1)Oc1ncccn1` (stereo not given): the TGI came out at 13.9 µM. That is a double-digit micromolar value.

With `CCOc1ccc(Nc2c3ccccc3nc3ccccc23)cc1`, the GI50 is 1.91 µM and 0.514 µM; the TGI is 18.3 µM and 13.2 µM.

In the case of `CCNCCNc1cc(-c2ccc(C#N)cc2)c(C#N)c2nc3ccccc3n12`, the GI50 is 4.66 µM and the TGI came out at 18.4 µM.

Consider `[2H]c1nc(=Nc2cc(NC(=O)C=C)c(N(C)CCN(C)C)cc2OC)[nH]c(-c2cn(C([2H])([2H])[2H])c3ccccc23)c1[2H]`, for which the GI50 is 1.04 µM and the TGI was found to be 2.93 µM.

For the compound `COc1cc2nc(-c3ccc(C(F)(F)F)cc3)cc(OCCCN3CCCC3)c2cc1OC`, the GI50 is 0.803 µM and the TGI worked out at 18.9 µM.

A further experiment deals with NCI-H460 lung. The experiment can be described thus: DTP human tumour cell line panel, 48 h.
Turning to `COC(=O)c1ccc2c(c1)C(=O)c1c-2n(CCCN=[N+]=[N-])c(=O)c2cc([N+](=O)[O-])ccc12`, the GI50 is 38.1 µM and the TGI was > 100 µM.

Take `C=C1C(=O)C23C(O)C1CC[C@H]2C12CCCC(C)(COC(C)=O)[C@H]1[C@H](O)[C@]3(O)OC2` (stereo not given in full): the TGI was determined as 6.36 µM.

In the case of `O=C(c1cccs1)C1NO[N+]([O-])=C1c1cccs1` (stereo not given), the GI50 is 5.37 µM and the TGI was found to be 13.1 µM.

Consider `CN1c2ccccc2SC2C(c3ccccc3)=NOC21` (stereo not given), for which the TGI was > 100 µM.

Consider `COc1ccc(C2=C(N3CCc4ccccc43)C(=O)NC2=O)cc1`, for which the GI50 is > 25 µM and the TGI is > 25 µM.

In the case of `Cc1cc2c(cc1Cl)S/C(=C/C(=O)O)C(Nc1cccc3nsnc13)=NS2(=O)=O`, the GI50 was > 39.8 µM and the concentration for total growth inhibition (TGI) was > 65.1 µM.

For the compound `COc1ccc(F)c(F)c1C(=O)c1cnc(NC2CCN(S(C)(=O)=O)CC2)nc1N`, the GI50 is 0.165 µM and 0.117 µM; the TGI is > 100 µM.

`Nc1cc(-c2ccc(Cl)cc2)nn1-c1nnc(/C=C/c2ccco2)c(=O)[nH]1`: the GI50 was 2.15 µM and the TGI turned out to be 15.3 µM.

`Cc1c(C)c(CC(=O)N2CC2)c(C)c(C)c1CC(=O)N1CC1` had a concentration for total growth inhibition (TGI) of 50.2 µM.

As to `O=C1c2ccccc2-c2c1c1c(NCCCO)nc3ccccc3c1n2Cc1ccccc1`, the GI50 was 17.5 µM and the TGI came out at 38.1 µM.

As to `O=C1c2ccccc2-c2c1c1ccccc1c(=O)n2CCNCCn1c2c(c3ccccc3c1=O)C(=O)c1ccccc1-2`, the GI50 is > 25 µM and the TGI was > 25 µM.

For the compound `CCCCCCCCCCCCCCCCCCOCC(COCCOCC[N+]1(CCCCCC(=O)[O-])CCCC1)Oc1ncccn1` (stereo not given), the TGI came out at 16.8 µM.

Turning to `CCOc1ccc(Nc2c3ccccc3nc3ccccc23)cc1`, the GI50 was 0.407 µM and 0.347 µM; the TGI was 3.03 µM and 1.82 µM.

`CCNCCNc1cc(-c2ccc(C#N)cc2)c(C#N)c2nc3ccccc3n12`: the GI50 is 2.47 µM and the TGI is 5.66 µM.

As to `[2H]c1nc(=Nc2cc(NC(=O)C=C)c(N(C)CCN(C)C)cc2OC)[nH]c(-c2cn(C([2H])([2H])[2H])c3ccccc23)c1[2H]`, the GI50 is 1.9 µM and the TGI was 4.37 µM.

Take `COc1cc2nc(-c3ccc(C(F)(F)F)cc3)cc(OCCCN3CCCC3)c2cc1OC`: the GI50 is 0.597 µM and the TGI amounted to 19.6 µM.

For the next experiment, the system named is U251 CNS. The experiment can be described thus: DTP human tumour cell line panel, 48 h.
Turning to `COC(=O)c1ccc2c(c1)C(=O)c1c-2n(CCCN=[N+]=[N-])c(=O)c2cc([N+](=O)[O-])ccc12`, the GI50 is 18 µM and the TGI is 48.8 µM.

Turning to `C=C1C(=O)C23C(O)C1CC[C@H]2C12CCCC(C)(COC(C)=O)[C@H]1[C@H](O)[C@]3(O)OC2` (stereo not given in full), the total growth inhibition concentration (TGI) came out at 5.4 µM. This lies in the single-digit micromolar range.

As to `O=C(c1cccs1)C1NO[N+]([O-])=C1c1cccs1` (stereo not given), the GI50 was 5.6 µM and the total growth inhibition concentration (TGI) was found to be 12 µM.

Turning to `CN1c2ccccc2SC2C(c3ccccc3)=NOC21` (stereo not given), the TGI is > 100 µM.

As for `COc1ccc(C2=C(N3CCc4ccccc43)C(=O)NC2=O)cc1`, the GI50 is > 25 µM and the concentration for total growth inhibition (TGI) is > 25 µM.

As for `Cc1cc2c(cc1Cl)S/C(=C/C(=O)O)C(Nc1cccc3nsnc13)=NS2(=O)=O`, the GI50 is 35.6 µM and the TGI was > 71.7 µM.

Regarding `COc1ccc(F)c(F)c1C(=O)c1cnc(NC2CCN(S(C)(=O)=O)CC2)nc1N`, the GI50 was 0.484 µM and 0.371 µM; the TGI was > 100 µM.

For the compound `Nc1cc(-c2ccc(Cl)cc2)nn1-c1nnc(/C=C/c2ccco2)c(=O)[nH]1`, the GI50 is 3 µM and the TGI was determined as 37.7 µM.
